The record followed here is patent US6620828B2, “Thiazole compounds and pharmaceutical compositions for inhibiting protein kinases and methods for their use” (Agouron Pharmaceuticals, Inc., priority 1999, dated 2003).

One assay deals with T1, phosphorylated VEGF-R2Δ50 (FLVK-P) (Homo sapiens, UniProt P35968, DEL940-989/E990V).
T1 construct: VEGF-R2Δ50 contains residues 806-939 and 990-1171; made in house; host or cells: baculovirus/insect cells
T1 sequence (P35968 with tags, fused parts or gaps DEL940-989/E990V limits assumed): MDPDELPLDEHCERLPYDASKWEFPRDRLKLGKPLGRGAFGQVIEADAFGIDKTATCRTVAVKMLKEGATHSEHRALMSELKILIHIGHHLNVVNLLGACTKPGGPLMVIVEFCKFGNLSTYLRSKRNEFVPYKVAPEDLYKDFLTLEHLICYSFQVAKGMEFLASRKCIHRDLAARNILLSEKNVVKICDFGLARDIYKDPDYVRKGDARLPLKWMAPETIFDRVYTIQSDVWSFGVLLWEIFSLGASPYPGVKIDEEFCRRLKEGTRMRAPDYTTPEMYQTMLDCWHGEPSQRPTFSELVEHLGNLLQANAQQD
In words: VEGF-R2 coupled spectrophotometric (FLVK-P) assay. It is filed as biochemical. As to conditions: Table 2; at 20 (head μM). From the text:
VEGF-R2 Construct for Assay: This construct determines the ability of a test compound to inhibit tyrosine kinase activity. A construct (VEGF-R2Δ50) of the cytosolic domain of human vascular endothelial growth factor receptor 2 (VEGF-R2) lacking the 50 central residues of the 68 residues of the kinase insert domain was expressed in a baculovirus/insect cell system. Of the 1356 residues of full-length VEGF-R2, VEGF-R2Δ50 contains residues 806-939 and 990-1171, and also one point mutation (E990V) within the kinase insert domain relative to wild-type VEGF-R2. Autophosphorylation of the purified construct was performed by incubation of the enzyme at a concentration of 4 μM in the presence of 3 mM ATP and 40 mM MgCl2 in 100 mM Hepes, pH 7.5, containing 5% glycerol and 5 mM DTT, at 4° C. for 2 h. […] See Parast et al., Biochemistry, 37, 16788-16801 (1998).
Coupled Spectrophotometric (FLVK-P) Assay
The production of ADP from ATP that accompanies phosphoryl transfer was coupled to oxidation of NADH using phosphoenolpyruvate (PEP) and a system having pyruvate kinase (PK) and lactic dehydrogenase (LDH). The oxidation of NADH was monitored by following the decrease of absorbance at 340 nm (e340=6.22 cm^−1 mM^−1) using a Beckman DU 650 spectrophotometer. Assay conditions for phosphorylated VEGF-R2Δ50 (indicated as FLVK-P in the tables below) were the following: 1 mM PEP; 250 μM NADH; 50 units of LDH/mL; 20 units of PK/mL; 5 mM DTT; 5.1 mM poly(E4Y1); 1 mM ATP; and 25 mM MgCl2 in 200 mM Hepes, pH 7.5. Assay conditions for unphosphorylated VEGF-R2Δ50 (indicated as FLVK in the tables) were the following: 1 mM PEP; 250 μM NADH; 50 units of LDH/mL; 20 units of PK/mL; 5 mM DTT; 20 mM poly(E4Y1); 3 mM ATP; and 60 mM MgCl2 and 2 mM MnCl2 in 200 mM Hepes, pH 7.5. Assays were initiated with 5 to 40 nM of enzyme. Ki values were determined by measuring enzyme activity in the presence of varying concentrations of test compounds. The data were analyzed using Enzyme Kinetic and Kaleidagraph software.
Regarding `COc1cc(Nc2nc(N)c(C3=NC(c4ccc(Br)cc4)CO3)s2)cc(OC)c1OC` (racemic) [I(12), (R/S)-5-[4-(4-Bromo-phenyl)-4,5-dihydro-oxazol-2-yl]-N^2-(3,4,5-trimethoxy-phenyl)-thiazole-2,4-diamine], the “FLVK-P % inhibition @ 20” value came to 71% @.

Still in this assay, the particulars now being: Table 2; spectrophotometric assay.
Take `COCOc1cccc(-c2noc(-c3sc(Nc4cc(OC)c(OC)c(OC)c4)nc3N)n2)c1` [B(4), 5-[3-(3-Methoxymethoxy-phenyl)-[1,2,4]oxadiazol-5-yl]-N^2-(3,4,5-trimethoxy-phenyl)-thiazole-2,4-diamine]: the inhibitory constant (Ki) worked out at 200 nM. In other words, the sub-micromolar range.

In a further assay the test system is human umbilical vein endothelial cells (HUVEC). The experiment in a line: HUVEC proliferation assay. The assay is classed as cell-based. Conditions: Homo sapiens, HUVEC, 10 nM; crude combinatorial urea library; read-out: Inhibition of HUVEC Proliferation % inhibition @ 10 nM. The essentials: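 Exponentially growing HUVEC were serum-starved 24 h (F12K + 1% FBS), pre-treated 1 h with compound (0.1% DMSO final), then stimulated with 6 ng/ml VEGF. Proliferation was read 72 h later by MTT reduction (A595). IC50 came from seven 0.5-log concentrations in triplicate; screens gave % inhibition relative to VEGF-only and starved wells.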
`CNC(=O)Nc1nc(N)c(-c2nc(-c3cccc(NC(=O)c4cccc(OC)c4)c3)cs2)s1` [drawing 606]: the inhibition at 0.01 µM is 15%.

The assay is the same for the next values; noted with them: Homo sapiens, HUVEC, 50 nM; crude combinatorial urea library; read-out: Inhibition of HUVEC Proliferation % inhibition @ 50 nM.
Regarding `CNC(=O)Nc1nc(N)c(-c2nc(-c3cccc(NC(=O)c4cccc(OC)c4)c3)cs2)s1` [drawing 606], the inhibition at 0.05 µM stood at 115%.

Still in this assay, the particulars now being: Homo sapiens, HUVEC, Inhibition of HUVEC Proliferation; 50 nM; crude combinatorial urea library; read-out: % inhibition @ 50 nM.
As for `COc1cccc(C(=O)Nc2cc(-c3csc(-c4sc(NC(=O)NCCCN5CCCC5=O)nc4N)n3)c(F)cc2F)c1` [drawing 675], the inhibition at 0.05 µM stood at 105%.
Turning to `COc1cccc(C(=O)Nc2cc(-c3csc(-c4sc(NC(=O)NCc5ccccc5)nc4N)n3)c(F)cc2F)c1` [drawing 678], the inhibition at 0.05 µM is 93%.
For `COc1cccc(C(=O)Nc2cc(-c3csc(-c4sc(NC(=O)NCCOCCO)nc4N)n3)c(F)cc2F)c1` [drawing 699], the inhibition at 0.05 µM was determined as 98%.
Turning to `COc1cccc(C(=O)Nc2cc(-c3csc(-c4sc(NC(=O)NCCN5CCOCC5)nc4N)n3)c(F)cc2F)c1` [drawing 700], the inhibition at 0.05 µM turned out to be 96%.
Same read-out and setting: the same measure for `COc1cccc(C(=O)Nc2cc(-c3csc(-c4sc(NC(=O)NCCN5CCCC5)nc4N)n3)c(F)cc2F)c1` [drawing 703]: 93%; for `COCC(C)NC(=O)Nc1nc(N)c(-c2nc(-c3cc(NC(=O)c4cccc(OC)c4)c(F)cc3F)cs2)s1` (stereo not shown) [drawing 704]: 93%.
On the same count and under the same terms, the same measure for `COc1cccc(C(=O)Nc2cc(-c3csc(-c4sc(NC(=O)NCc5ccccn5)nc4N)n3)c(F)cc2F)c1` [drawing 705]: 118%.
In the case of `COc1cccc(C(=O)Nc2cc(-c3csc(-c4sc(NC(=O)NCCc5ccncc5)nc4N)n3)c(F)cc2F)c1` [drawing 753], the inhibition at 0.05 µM came out at 98%.

The assay is the same for the next values; noted with them: Homo sapiens, HUVEC, Inhibition of HUVEC Proliferation; 50 nM; crude combinatorial urea library; read-out: Inhibition @ 50 nM.
In the case of `COc1cccc(C(=O)Nc2cc(-c3noc(-c4sc(NC(=O)NCC5CCCO5)nc4N)n3)c(F)cc2F)c1` (stereo not shown) [drawing 762], the inhibition at 0.05 µM is 107%.
On the same count and under the same terms, with `COc1cccc(C(=O)Nc2cc(-c3noc(-c4sc(NC(=O)NCCCN5CCCC5=O)nc4N)n3)c(F)cc2F)c1` [drawing 763] the figure was 106%; with `COc1cccc(C(=O)Nc2cc(-c3noc(-c4sc(NC(=O)N[C@H]5CC[C@H](O)CC5)nc4N)n3)c(F)cc2F)c1` [drawing 770], 92%; with `CNC(=O)Nc1nc(N)c(-c2nc(-c3cc(NC(=O)c4cccc(OC)c4)c(F)cc3F)no2)s1` [drawing 782], 105%.
On to `COc1cccc(C(=O)Nc2cc(-c3noc(-c4sc(NC(=O)NCCOCCO)nc4N)n3)c(F)cc2F)c1` [drawing 787], for which the inhibition at 0.05 µM came out at 98%.
As for `COc1cccc(C(=O)Nc2cc(-c3noc(-c4sc(NC(=O)NCCN5CCOCC5)nc4N)n3)c(F)cc2F)c1` [drawing 788], the inhibition at 0.05 µM stood at 106%.
Still for that read-out and setting: the same measure for `COc1cccc(C(=O)Nc2cc(-c3noc(-c4sc(NC(=O)NCC(N)=O)nc4N)n3)c(F)cc2F)c1` [drawing 803]: 30%; for `COc1cccc(C(=O)Nc2cc(-c3noc(-c4sc(NC(=O)NCC(C)C)nc4N)n3)c(F)cc2F)c1` [drawing 804]: 20%; for `COc1cccc(C(=O)Nc2cc(-c3noc(-c4sc(NC(=O)NCCO)nc4N)n3)c(F)cc2F)c1` [drawing 806]: 19%.

The assay is the same for the next values; noted with them: Homo sapiens, HUVEC, Table 3.
In turn, `COc1cccc(C(=O)Nc2cc(-c3csc(-c4sc(NC(=O)NCc5ccccc5)nc4N)n3)c(F)cc2F)c1` [O(13), N-{5-[4′-Amino-2′-(3-benzyl-ureido)-[2,5′]bithiazolyl-4-yl]-2,4-difluoro-phenyl}-3-methoxy-benzamide] displayed an IC50 of 140 nM.

Staying with this assay, now noted: Homo sapiens, HUVEC, Table I screening results; 150 nM; crude combinatorial amide library.
Consider `COc1cc(Nc2nc(N)c(-c3nc(-c4cccc(NC(=O)c5cc6ccccc6o5)c4)cs3)s2)cc(OC)c1OC` [drawing 844], for which the inhibition at 0.15 µM is 40%.
Take `COc1cc(Nc2nc(N)c(-c3nc(-c4cccc(NC(=O)c5ccccc5)c4)cs3)s2)cc(OC)c1OC` [drawing 845]: the inhibition at 0.15 µM turned out to be 33%.
Turning to `COc1cc(Nc2nc(N)c(-c3nc(-c4cccc(NC(=O)COc5ccccc5)c4)cs3)s2)cc(OC)c1OC` [drawing 868], the inhibition at 0.15 µM came to 10%.
`COc1cc(Nc2nc(N)c(-c3nc(-c4cccc(NC(=O)CCc5ccccc5)c4)cs3)s2)cc(OC)c1OC` [drawing 884]: the inhibition at 0.15 µM worked out at 4%.
As for `COc1cc(Nc2nc(N)c(-c3nc(-c4cccc(NC(=O)c5sc(C)nc5C)c4)cs3)s2)cc(OC)c1OC` [drawing 894], the inhibition at 0.15 µM amounted to 19%.
Same read-out and setting: with `COc1cc(Nc2nc(N)c(-c3nc(-c4cccc(NC(=O)c5cnc6ccccc6c5)c4)cs3)s2)cc(OC)c1OC` [drawing 896] the figure was 42%; with `COc1cc(Nc2nc(N)c(-c3nc(-c4cccc(NC(=O)c5ncoc5-c5ccccc5)c4)cs3)s2)cc(OC)c1OC` [drawing 897], 64%; with `COc1cc(Nc2nc(N)c(-c3nc(-c4cccc(NC(=O)c5ccc(C)s5)c4)cs3)s2)cc(OC)c1OC` [drawing 916], 32%.
As to `COc1cc(Nc2nc(N)c(-c3nc(-c4cccc(NC(=O)c5ccc(Br)o5)c4)cs3)s2)cc(OC)c1OC` [drawing 929], the inhibition at 0.15 µM was 34%.
As to `COc1cccc(C(=O)Nc2cccc(-c3csc(-c4sc(Nc5cc(OC)c(OC)c(OC)c5)nc4N)n3)c2)c1` [drawing 999], the inhibition at 0.15 µM worked out at 108%.

The same assay, now with this note: Homo sapiens, HUVEC, Table II screening results; 1 nM; crude combinatorial amide library.
In the case of `CNC(=O)Nc1nc(N)c(-c2nc(-c3cccc(NC(=O)c4cccc(OC)c4)c3)cs2)s1` [drawing 1034], the inhibition at 0.001 µM stood at 2%.

The assay is the same for the next values; noted with them: Homo sapiens, HUVEC, Table II screening results; 10 nM; crude combinatorial amide library; read-out: % inhibition @ 10 nM.
For `CNC(=O)Nc1nc(N)c(-c2nc(-c3cccc(NC(=O)c4cccc(OC)c4)c3)cs2)s1` [drawing 1034], the inhibition at 0.01 µM turned out to be 91%.

Staying with this assay, now noted: Homo sapiens, HUVEC, table following Table II (untitled); 1 nM; crude combinatorial library.
With `COc1cccc(C(=O)Nc2ccc(C)c(-c3noc(-c4sc(Nc5cc(OC)c(OC)c(OC)c5)nc4N)n3)c2)c1` [drawing 1122], the inhibition at 0.001 µM amounted to 35%.

Still in this assay, the particulars now being: Homo sapiens, HUVEC, table following Table II (untitled); 10 nM; crude combinatorial library; read-out: % inhibition @ 10 nM.
On to `COc1cccc(C(=O)Nc2ccc(C)c(-c3noc(-c4sc(Nc5cc(OC)c(OC)c(OC)c5)nc4N)n3)c2)c1` [drawing 1122], for which the inhibition at 0.01 µM was determined as 94%.

Still in this assay, the particulars now being: Table I screening results; 150 nM; crude combinatorial amide library.
In the case of `COc1cc(Nc2nc(N)c(-c3nc(-c4cccc(NC(=O)CCc5ccccc5Cl)c4)cs3)s2)cc(OC)c1OC`, the “% inhibition @ 150 nM” value is reported as 0%.
On the same count and under the same terms, with `COc1cc(Nc2nc(N)c(-c3nc(-c4cccc(NC(=O)/C=C/c5ccc6c(c5)OCO6)c4)cs3)s2)cc(OC)c1OC` the figure was 0%; with `COc1cc(Nc2nc(N)c(-c3nc(-c4cccc(NC(=O)C(C)c5ccc(CC(C)C)cc5)c4)cs3)s2)cc(OC)c1OC` (stereo not shown), 0%.
For `COc1ccc(CC(=O)Nc2cccc(-c3csc(-c4sc(Nc5cc(OC)c(OC)c(OC)c5)nc4N)n3)c2)cc1`, the “% inhibition @ 150 nM” value came out at 0%.
On the same count and under the same terms, the same measure for `COc1cc(Nc2nc(N)c(-c3nc(-c4cccc(NC(=O)Cn5cnc6c5c(=O)n(C)c(=O)n6C)c4)cs3)s2)cc(OC)c1OC`: 0%.

The same assay, now with this note: Table I screening results; 150 nM; crude combinatorial amide library; 0.15 µM.
Take `COc1cc(Nc2nc(N)c(-c3nc(-c4cccc(NC(=O)c5ccc(C(C)C)cc5)c4)cs3)s2)cc(OC)c1OC` [drawing 943]: the “% inhibition @ 150 nM” value was determined as 6%.
Regarding `COc1cc(Nc2nc(N)c(-c3nc(-c4cccc(NC(=O)c5ccc(C(C)C)cc5)c4)cs3)s2)cc(OC)c1OC` [drawing 1003], the “% inhibition @ 150 nM” value turned out to be 17%.

Broadly, the Ki is a dissociation constant, usually derived from enzyme kinetics or from competition with a known ligand. A word on the IC50: it is the concentration that gives 50% inhibition.
